As a reminder, the EC50 is the concentration at which the effect is half-maximal. One may read the IC50 as the concentration needed to halve the response being measured. The EC99 is the concentration needed for an effect of 99%.

Experimental findings from ChEMBL document CHEMBL1152465, “Comparative evaluation of the inhibitory activities of a series of pyrimidinedione congeners that inhibit human immunodeficiency virus types 1 and 2” (Antimicrob Agents Chemother, 2008) are described below.

Activity calls are given as the source filed them. The rule behind the calls is not given here.

Data set [1] concerns Human immunodeficiency virus 2. Briefly: Antiviral activity against HIV2 ROD infected in human CEM-SS cells assessed as inhibition of virus-induced cytopathic effect by XTT assay. It counts as functional, organism-based, ISOLATE ROD. Conditions: Human immunodeficiency virus 2, ISOLATE ROD, CEM-SS; read-out: EC50.
A short description of data set [2]: Therapeutic index, ratio of TC50 for human CEM-SS cells to EC50 for HIV1 RF infected in human CEM-SS cells. It is filed as cell-based. As to conditions: read-out: TI.
Data set [3] in a line: Therapeutic index, ratio of TC50 for human CEM-SS cells to EC50 for HIV2 ROD infected in human CEM-SS cells. It is filed as cell-based. Conditions: CEM-SS cells, read-out: TI.
Data set [4] deals with Human immunodeficiency virus type 1 reverse transcriptase (Human immunodeficiency virus 1, UniProt Q72547). As to the kind of experiment: Inhibition of wild type HIV1 reverse transcriptase assessed as 32P-labeled GMP incorporation into nascent DNA strand.
Data set [5] concerns the target Human immunodeficiency virus type 1 reverse transcriptase (Human immunodeficiency virus 1, UniProt Q72547, K103N). Briefly: Inhibition of HIV1 reverse transcriptase K103N mutant assessed as 32P-labeled GMP incorporation into nascent DNA strand.
Data set [6] deals with Human immunodeficiency virus 1. As to the kind of experiment: Antiviral activity against HIV1 infected in human HeLa cells expressing CD4-LTR assessed as inhibition of viral entry-related beta galactosidase expression treated for 2 hrs followed by drug wash out measured after 48 hrs by MAGI assay. It counts as functional, organism-based. Conditions: Human immunodeficiency virus 1, HeLa.

Data set [7] is described as follows: Cytotoxicity against human HeLa cells expressing CD4-LTR by XTT assay. It is filed as cell-based. As to conditions: read-out: TC50 (the source's name).
Data set [8] in a line: Therapeutic index, ratio of TC50 human HeLa cells expressing CD4-LTR to EC50 for HIV1 entry inhibition in human HeLa cells expressing CD4-LTR. It is filed as cell-based. Conditions: read-out: TI.
The test system of data set [9] is Human immunodeficiency virus 1. Briefly: Antiviral activity against HIV1 infected in human CEM-SS cells assessed as inhibition of viral replication and virus-induced cytopathic effect by dose-response curve analysis. It is filed as functional. As to conditions: Human immunodeficiency virus 1, CEM-SS. In general terms: Protection from cytopathic effect is a common read-out in antiviral testing.

In data set [10] the test system is Human immunodeficiency virus 2. Briefly: Inhibition of HIV2 reverse transcriptase.
Data set [11] relates to Human immunodeficiency virus 2. As to the kind of experiment: Antiviral activity against HIV2 assessed as inhibition of viral single round replication at early time point. It is filed as functional, organism-based.
The test system of data set [12] is Human immunodeficiency virus 2. Briefly: Antiviral activity against HIV2 assessed as inhibition of viral replication treated at time points after viral entry into host cells. It counts as functional, organism-based.
Data set [13] deals with Human immunodeficiency virus 2. As to the kind of experiment: Inhibition of HIV2 reverse transcriptase assessed as 32P-labeled GMP incorporation into nascent DNA strand at highest concentration.
In data set [14] the test system is Human immunodeficiency virus 2. As to the kind of experiment: Antiviral activity against HIV2 infected in human CEM-SS cells assessed as inhibition of viral replication and virus-induced cytopathic effect by dose-response curve analysis. It counts as functional. As to conditions: Human immunodeficiency virus 2, CEM-SS.
For data set [15], the system named is Human immunodeficiency virus 1. Briefly: Antiviral activity against HIV1 RF infected in human CEM-SS cells assessed as inhibition of virus-induced cytopathic effect by XTT assay. It is filed as functional, organism-based. As to conditions: Human immunodeficiency virus 1, RF.
A short description of data set [16]: Cytotoxicity against human CEM-SS cells by XTT assay. It counts as cell-based. As to conditions: read-out: TC50 (the source's name). In general terms: Formazan colour is commonly taken as a measure of viable cells.

`Cc1cc(C)cc(Sc2c(C(C)C)c(=O)[nH]c(=O)n2CC2=CCCC2)c1`: the EC50 in data set [1] is 0.5 µM; in data set [6] it was 0.009 µM; in [15] it was 0.005 µM. Moreover, the selectivity ratio in [2] amounted to 5920; in data set [3], 57.4; in [8], 3270. The IC50 was 0.079 µM in data set [4] and more than 270 µM in data set [5]. Further, the CC50 in [7] and in data set [16] was 29.4 µM each time. In addition, the EC99 in data set [9] came to 0.0003 µM; in [14], 1 µM. Further, the outcome in data set [10], in data set [12] and in data set [13] was inactive. Further, the outcome in data set [11] was Active.
On to `Cc1cc(C)cc(Oc2c(C(C)C)c(=O)[nH]c(=O)n2CC2CC2)c1`, for which the results for the EC50 in data set [1], in data set [6] and in data set [15] were 0.5 µM, 0.27 µM and 0.0018 µM, respectively. The selectivity ratio in data set [2] was found to be 15500; in [3], 40; in [8], 86. Moreover, the IC50 turned out to be 0.012 µM in [4] and 0.067 µM in data set [5]. Moreover, the CC50 was 23.4 µM in data set [7] and 19.5 µM in [16]. Besides, the outcome in data set [10], in data set [12] and in data set [13] was inactive. Moreover, the result in [11] was Active. Moreover, in data set [14], the EC99 came to 1 µM.
For `CCc1c(Sc2cc(C)cc(C)c2)n(CC2CCC2)c(=O)[nH]c1=O`, the EC50 in data set [1] was found to be 1.7 µM; in data set [6], 0.11 µM; in [15] it was 0.0123 µM. Besides, the results for the selectivity ratio in data set [2], in data set [3] and in [8] were 80800, 16.3 and 4610, respectively. The values for the IC50 in data set [4] and in data set [5] were 0.02 µM and more than 290 µM, respectively. For the same compound, the values for the CC50 in data set [7] and in [16] were 509 µM and 27 µM, respectively. Moreover, the EC99 in [9] worked out at 1 µM; in data set [14], 40 µM. For the same compound, the outcome in data set [10], in data set [12] and in [13] was inactive. The result in [11] was Active.
As for `CCc1c(Oc2cc(C)cc(C)c2)n(CC2CCC2)c(=O)[nH]c1=O`, the EC50 in [1] amounted to 7.2 µM; in data set [6], 0.3 µM; in data set [15], 0.022 µM. Moreover, the selectivity ratio in [2] is 54200; in data set [3], more than 172; in [8], 3960. In addition, the IC50 in data set [4] stood at 0.235 µM; in data set [5] it was 0.289 µM. Besides, the CC50 in [7] and in data set [16] was 1200 µM in each case. Also, the EC99 in data set [9] is 1 µM; in [14], more than 100 µM. For the same compound, the result in [10], in [12] and in data set [13] was inactive. The outcome in [11] was Active.
On to `CCc1c(Oc2cc(C)cc(C)c2)n(CC2CC=CC2)c(=O)[nH]c1=O`, for which the EC50 in [1] was 19 µM; in [6] it was 0.09 µM; in [15], 0.0071 µM. Moreover, the selectivity ratio is 170000 in data set [2], more than 3.2 in [3] and 6850 in data set [8]. In addition, the values for the IC50 in [4] and in [5] were 0.38 µM and 5.1 µM, respectively. In addition, the CC50 in [7] worked out at 630 µM; in data set [16] it was 1200 µM. The EC99 is 0.2 µM in [9] and more than 100 µM in [14]. Moreover, the result in data set [10], in data set [12] and in [13] was inactive. For the same compound, in data set [11], the result was Active.
For the compound `CCc1c(C(=O)c2cc(C)cc(C)c2)n(CC2CC2)c(=O)[nH]c1=O`, the values for the EC50 in data set [1], in data set [6] and in data set [15] were 0.5 µM, 0.006 µM and 0.0096 µM, respectively. Besides, the selectivity ratio amounted to 125000 in [2], 2650 in data set [3] and 197000 in data set [8]. Also, the IC50 in data set [4] is 0.178 µM; in [5], 1.78 µM. Further, the results for the CC50 in [7] and in data set [16] were 1210 µM and 1200 µM, respectively. The EC99 turned out to be 0.01 µM in data set [9] and 100 µM in [14]. Moreover, the result in data set [10], in data set [12] and in [13] was inactive. Further, the result in data set [11] was Active.
Regarding `Cc1cc(C)cc(Sc2c(C(C)C)c(=O)[nH]c(=O)n2Cc2ccccc2)c1`, the figures for the EC50 in data set [1], in data set [6] and in data set [15] were 0.2 µM, 0.08 µM and 0.0012 µM, respectively. Also, the results for the selectivity ratio in [2], in data set [3] and in data set [8] were 165000, 1220 and 2340, respectively. The IC50 was found to be 0.137 µM in data set [4] and 1.66 µM in data set [5]. Further, the CC50 in data set [7] and in data set [16] was 192 µM each time. Moreover, the EC99 in data set [9] worked out at 1 µM. Besides, the outcome in data set [10], in data set [12] and in [13] was inactive. The result in data set [11] was Active.
On to `Cc1cc(C)cc(Sc2c(C(C)C)c(=O)[nH]c(=O)n2CC2CC2)c1`, for which the EC50 in data set [1] is 0.5 µM; in data set [6], 0.009 µM; in data set [15], 0.0003 µM. Also, the selectivity ratio in data set [2] worked out at 37600; in [3], 16.9; in data set [8], 1180. The IC50 in data set [4] was found to be 0.003 µM; in [5], 1.47 µM. Also, the CC50 in data set [7] was 10.3 µM; in data set [16] it was 7.8 µM. The EC99 in data set [9] came out at 1 µM. For the same compound, the outcome in data set [10], in data set [12] and in data set [13] was inactive. Also, in data set [11], the result was Active.
On to `CCc1c(Sc2cc(C)cc(C)c2)n(CCC2CC=CC2)c(=O)[nH]c1=O`, for which the EC50 amounted to 1.7 µM in data set [1], 0.09 µM in [6] and 0.0241 µM in data set [15]. For the same compound, the selectivity ratio in data set [2] was 1030; in data set [3] it was 11.4; in data set [8], 1460. Also, the IC50 was 0.179 µM in data set [4] and 141 µM in [5]. The CC50 was determined as 135 µM in [7] and 19.5 µM in data set [16]. Also, the EC99 in data set [9] was determined as 1 µM. The result in data set [10], in [12] and in data set [13] was inactive. Besides, in [11], the result was Active.
As for `CCc1c(Sc2cc(C)cc(C)c2)n(CC2=CCCC2)c(=O)[nH]c1=O`, the EC50 in data set [1] is 2 µM; in data set [6] it was 0.009 µM; in data set [15] it was 0.056 µM. Besides, the selectivity ratio in [2] is 15800; in [3] it was 451; in data set [8], 104000. The figures for the IC50 in [4] and in data set [5] were 0.138 µM and 66.8 µM, respectively. The CC50 in data set [7] and in [16] was 887 µM each time. In addition, the EC99 in data set [9] was determined as 1 µM. Also, the outcome in data set [10], in data set [12] and in [13] was inactive. Also, the outcome in data set [11] was Active.
Take `Cc1cc(C)cc(Oc2c(C(C)C)c(=O)[nH]c(=O)n2CC2CC=CC2)c1`: the EC50 in [1] stood at 18.2 µM; in [6] it was 0.09 µM; in data set [15], 0.015 µM. Moreover, the selectivity ratio in data set [2] was determined as 12900; in data set [3], 11; in data set [8], 2340. The figures for the IC50 in data set [4] and in data set [5] were 0.256 µM and 1.9 µM, respectively. The CC50 in [7] and in data set [16] was 200 µM in each case. For the same compound, the EC99 in data set [9] was found to be 1 µM. The result in data set [10], in [12] and in [13] was inactive. Besides, in data set [11], the result was Active.
On to `Cc1cc(C)cc(Oc2c(C(C)C)c(=O)[nH]c(=O)n2CC2CCCCC2)c1`, for which the EC50 was found to be 1.6 µM in data set [1], 0.84 µM in [6] and 0.0049 µM in data set [15]. In addition, the selectivity ratio in data set [2] came out at 11400; in [3], 8.4; in [8], 41. The IC50 in data set [4] worked out at 0.143 µM; in data set [5], 11.9 µM. Moreover, the results for the CC50 in [7] and in data set [16] were 34.4 µM and 13.2 µM, respectively. Besides, the EC99 in [9] was found to be 1 µM. Also, the outcome in [10], in data set [12] and in [13] was inactive. Besides, the outcome in data set [11] was Active.
